Experimental data: ChEMBL document CHEMBL4270669 (J Med Chem, 2018)
The source made the active and inactive calls. No cut-off for these calls is given here.

Tests used:
[1] = target: T1, Phosphatidylinositol 4,5-bisphosphate 3-kinase catalytic subunit alpha isoform (Homo sapiens, UniProt P42336)
[2] = target: Serine/threonine-protein kinase mTOR (Homo sapiens, UniProt P42345)
[3] = Inhibition of TORC1 in human A2058 cells assessed as decrease in S6 phosphorylation at Ser235/236 after 1 hr by Western blot analysis; assay type: cell-based; conditions: A2058, 1 h
[4] = Inhibition of TORC2 in human A2058 cells assessed as decrease in PKB/Akt phosphorylation at Ser473 after 1 hr by Western blot analysis; assay type: cell-based; conditions: A2058, 1 h
[5] = test system: Rattus norvegicus; assay: Increase in insulin levels in Sprague-Dawley rat plasma at 10 mg/kg, po administered as single dose; assay type: functional, organism-based
[6] = test system: OVCAR-3; assay: Antitumor activity against human OVCAR3 cells xenografted in BALB/C nude mouse assessed as tumor growth inhibition at 50 mg/kg, po administered daily for 28 days relative to control; assay type: functional; conditions: OVCAR-3, po, 672 h, read-out: TGI
[7] = test system: Mus musculus; assay: Increase in insulin levels in C57BL/6JRj mouse plasma at 50 mg/kg, po administered as single dose; assay type: functional, organism-based
[8] = test system: Mus musculus; assay: Increase in glucose levels in C57BL/6JRj mouse plasma at 50 mg/kg, po administered as single dose; assay type: functional, organism-based
[9] = test system: Rattus norvegicus; assay: Increase in glucose levels in Sprague-Dawley rat plasma at 10 mg/kg, po administered as single dose after 8 hrs; assay type: functional, organism-based
[10] = test system: Mus musculus; assay: Antiepileptic activity in Tsc1flox/flox/GFAP-Cre conditional knocked out mouse model assessed as reduction in seizures at 50 mg/kg, po qd treated from days 21 to 53 postnatal by electroencephalography; assay type: functional, organism-based
[11] = test system: Mus musculus; assay: Toxicity in BALB/C nude mouse xenografted with human OVCAR3 cells assessed as body weight loss at 50 mg/kg, po administered daily for 28 days relative to control; assay type: organism-based; conditions: in vivo, 672 h
[12] = target: T2, Phosphatidylinositol 4,5-bisphosphate 3-kinase catalytic subunit delta isoform (Homo sapiens, UniProt O00329)
T2 sequence (O00329 whole entry): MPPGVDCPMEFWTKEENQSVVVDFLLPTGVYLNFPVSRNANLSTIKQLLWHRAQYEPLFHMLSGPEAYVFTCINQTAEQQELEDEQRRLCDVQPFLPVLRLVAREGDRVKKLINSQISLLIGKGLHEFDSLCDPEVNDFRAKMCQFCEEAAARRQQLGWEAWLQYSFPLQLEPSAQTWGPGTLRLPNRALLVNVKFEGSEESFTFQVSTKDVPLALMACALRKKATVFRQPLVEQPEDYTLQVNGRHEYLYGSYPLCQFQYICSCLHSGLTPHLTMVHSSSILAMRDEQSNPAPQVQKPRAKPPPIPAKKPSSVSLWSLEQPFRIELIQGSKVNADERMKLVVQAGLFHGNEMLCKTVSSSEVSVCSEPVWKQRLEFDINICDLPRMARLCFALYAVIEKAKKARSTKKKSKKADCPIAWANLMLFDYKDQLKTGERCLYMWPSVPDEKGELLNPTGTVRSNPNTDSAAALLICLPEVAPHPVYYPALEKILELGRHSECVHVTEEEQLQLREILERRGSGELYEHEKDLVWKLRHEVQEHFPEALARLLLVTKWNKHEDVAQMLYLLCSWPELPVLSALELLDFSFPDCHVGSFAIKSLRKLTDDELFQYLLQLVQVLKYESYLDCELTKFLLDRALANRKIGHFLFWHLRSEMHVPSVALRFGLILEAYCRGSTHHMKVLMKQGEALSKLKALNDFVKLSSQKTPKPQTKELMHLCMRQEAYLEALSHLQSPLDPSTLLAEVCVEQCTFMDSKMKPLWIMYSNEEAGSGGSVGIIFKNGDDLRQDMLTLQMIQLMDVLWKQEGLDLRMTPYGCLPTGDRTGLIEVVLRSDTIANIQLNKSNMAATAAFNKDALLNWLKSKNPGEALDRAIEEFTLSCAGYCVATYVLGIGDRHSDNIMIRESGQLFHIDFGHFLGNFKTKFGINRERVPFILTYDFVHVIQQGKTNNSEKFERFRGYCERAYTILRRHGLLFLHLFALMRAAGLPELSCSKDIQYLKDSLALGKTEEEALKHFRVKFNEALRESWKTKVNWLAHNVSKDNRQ
Description: Inhibition of human PI3Kdelta (108 to 1044 residues) expressed in mammalian expression system by KINOMEscan assay

[13] = target: T1, Phosphatidylinositol 4,5-bisphosphate 3-kinase catalytic subunit alpha isoform; remark: listed apart in the source
Description: Inhibition of human PI3Kalpha (108 to 1068 residues) expressed in mammalian expression system by KINOMEscan assay

[14] = target: Phosphatidylinositol 4-kinase beta (Homo sapiens, UniProt Q9UBF8)
Sequence of Phosphatidylinositol 4-kinase beta (Q9UBF8 whole entry, the tested form may be a part): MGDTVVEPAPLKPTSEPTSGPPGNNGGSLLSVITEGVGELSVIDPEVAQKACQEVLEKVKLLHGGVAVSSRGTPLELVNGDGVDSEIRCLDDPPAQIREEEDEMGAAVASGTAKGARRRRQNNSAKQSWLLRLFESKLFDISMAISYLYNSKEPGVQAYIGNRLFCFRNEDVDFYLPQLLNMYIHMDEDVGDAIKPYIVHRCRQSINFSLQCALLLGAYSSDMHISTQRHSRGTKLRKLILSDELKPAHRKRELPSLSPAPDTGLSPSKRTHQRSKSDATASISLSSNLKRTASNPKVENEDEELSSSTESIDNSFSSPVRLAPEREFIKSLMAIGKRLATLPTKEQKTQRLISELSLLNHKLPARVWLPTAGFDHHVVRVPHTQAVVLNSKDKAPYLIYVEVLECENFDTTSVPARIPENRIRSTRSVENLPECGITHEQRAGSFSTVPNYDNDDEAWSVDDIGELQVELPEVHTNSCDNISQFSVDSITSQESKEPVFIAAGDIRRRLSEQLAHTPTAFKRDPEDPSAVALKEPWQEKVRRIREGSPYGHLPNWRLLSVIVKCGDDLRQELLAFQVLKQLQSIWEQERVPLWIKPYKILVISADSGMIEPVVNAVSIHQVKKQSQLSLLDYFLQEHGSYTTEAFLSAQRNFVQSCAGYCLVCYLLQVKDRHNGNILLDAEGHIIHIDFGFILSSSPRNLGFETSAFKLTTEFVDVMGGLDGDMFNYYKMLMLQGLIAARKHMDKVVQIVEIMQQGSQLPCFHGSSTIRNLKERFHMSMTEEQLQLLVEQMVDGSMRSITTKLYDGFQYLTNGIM
Description: Inhibition of human PI4Kbeta (1 to 828 residues) expressed in mammalian expression system by KINOMEscan assay

[15] = target: Phosphatidylinositol 3-kinase catalytic subunit type 3 (Homo sapiens, UniProt Q8NEB9); assay: Inhibition of human VPS34 (282 to 879 residues) expressed in mammalian expression system by KINOMEscan assay
Sequence of Phosphatidylinositol 3-kinase catalytic subunit type 3 (Q8NEB9 whole entry, the tested form may be a part, canonical isoform): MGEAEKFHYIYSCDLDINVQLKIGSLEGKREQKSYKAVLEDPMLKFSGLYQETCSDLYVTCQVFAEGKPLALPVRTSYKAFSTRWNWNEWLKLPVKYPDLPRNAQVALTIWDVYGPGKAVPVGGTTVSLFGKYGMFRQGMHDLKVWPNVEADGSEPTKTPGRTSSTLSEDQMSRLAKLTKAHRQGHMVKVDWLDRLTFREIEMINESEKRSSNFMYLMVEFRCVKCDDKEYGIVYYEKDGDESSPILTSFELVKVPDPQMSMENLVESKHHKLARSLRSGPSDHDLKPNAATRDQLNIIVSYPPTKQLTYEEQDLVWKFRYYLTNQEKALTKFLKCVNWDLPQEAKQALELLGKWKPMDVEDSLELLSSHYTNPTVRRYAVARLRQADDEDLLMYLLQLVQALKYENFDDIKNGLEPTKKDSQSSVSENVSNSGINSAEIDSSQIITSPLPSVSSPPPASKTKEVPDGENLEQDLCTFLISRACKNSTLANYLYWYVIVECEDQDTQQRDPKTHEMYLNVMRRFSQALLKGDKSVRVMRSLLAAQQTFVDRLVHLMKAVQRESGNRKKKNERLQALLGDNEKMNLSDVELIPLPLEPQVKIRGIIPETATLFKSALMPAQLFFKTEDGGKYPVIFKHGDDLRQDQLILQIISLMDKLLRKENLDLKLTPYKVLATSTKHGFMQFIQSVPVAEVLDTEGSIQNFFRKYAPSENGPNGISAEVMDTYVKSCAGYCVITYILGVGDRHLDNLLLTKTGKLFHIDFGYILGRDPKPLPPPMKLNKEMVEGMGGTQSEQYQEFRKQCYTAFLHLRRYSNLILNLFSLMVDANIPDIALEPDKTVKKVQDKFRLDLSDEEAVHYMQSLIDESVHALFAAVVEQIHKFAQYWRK

[16] = target: Phosphatidylinositol 4,5-bisphosphate 3-kinase catalytic subunit beta isoform (Homo sapiens, UniProt P42338)
Sequence of Phosphatidylinositol 4,5-bisphosphate 3-kinase catalytic subunit beta isoform (P42338 whole entry, canonical isoform): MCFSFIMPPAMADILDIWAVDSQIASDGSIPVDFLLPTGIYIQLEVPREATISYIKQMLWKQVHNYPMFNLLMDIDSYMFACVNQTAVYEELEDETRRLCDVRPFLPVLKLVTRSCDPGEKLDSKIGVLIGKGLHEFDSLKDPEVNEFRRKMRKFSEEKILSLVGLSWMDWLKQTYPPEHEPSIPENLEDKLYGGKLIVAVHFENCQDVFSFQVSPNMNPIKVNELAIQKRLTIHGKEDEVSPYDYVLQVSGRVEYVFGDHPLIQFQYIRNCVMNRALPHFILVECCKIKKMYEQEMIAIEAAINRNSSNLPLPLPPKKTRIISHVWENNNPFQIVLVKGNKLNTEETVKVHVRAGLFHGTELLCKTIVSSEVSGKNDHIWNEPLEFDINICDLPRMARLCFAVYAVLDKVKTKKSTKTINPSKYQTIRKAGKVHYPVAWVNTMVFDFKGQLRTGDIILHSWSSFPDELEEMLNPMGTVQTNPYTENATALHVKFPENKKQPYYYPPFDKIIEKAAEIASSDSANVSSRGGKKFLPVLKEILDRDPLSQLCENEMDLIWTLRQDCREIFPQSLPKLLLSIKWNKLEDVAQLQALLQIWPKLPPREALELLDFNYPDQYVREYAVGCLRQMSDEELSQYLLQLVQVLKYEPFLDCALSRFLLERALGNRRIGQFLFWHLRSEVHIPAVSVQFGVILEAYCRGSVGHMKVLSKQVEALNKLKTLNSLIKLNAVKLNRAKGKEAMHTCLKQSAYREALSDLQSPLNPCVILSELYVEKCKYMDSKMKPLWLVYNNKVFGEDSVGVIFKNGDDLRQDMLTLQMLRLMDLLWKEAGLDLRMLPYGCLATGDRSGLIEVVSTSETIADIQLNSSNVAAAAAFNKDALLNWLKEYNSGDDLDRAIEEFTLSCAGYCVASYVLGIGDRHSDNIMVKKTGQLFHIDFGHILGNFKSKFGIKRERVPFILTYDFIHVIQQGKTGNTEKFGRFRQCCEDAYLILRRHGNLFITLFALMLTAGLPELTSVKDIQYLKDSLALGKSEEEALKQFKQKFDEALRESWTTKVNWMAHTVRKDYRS
Description: Inhibition of human PI3Kbeta (118 to 1070 residues) expressed in mammalian expression system by KINOMEscan assay

[17] = target: Phosphatidylinositol 4,5-bisphosphate 3-kinase catalytic subunit gamma isoform (Homo sapiens, UniProt P48736)
Sequence of Phosphatidylinositol 4,5-bisphosphate 3-kinase catalytic subunit gamma isoform (P48736 whole entry, canonical isoform): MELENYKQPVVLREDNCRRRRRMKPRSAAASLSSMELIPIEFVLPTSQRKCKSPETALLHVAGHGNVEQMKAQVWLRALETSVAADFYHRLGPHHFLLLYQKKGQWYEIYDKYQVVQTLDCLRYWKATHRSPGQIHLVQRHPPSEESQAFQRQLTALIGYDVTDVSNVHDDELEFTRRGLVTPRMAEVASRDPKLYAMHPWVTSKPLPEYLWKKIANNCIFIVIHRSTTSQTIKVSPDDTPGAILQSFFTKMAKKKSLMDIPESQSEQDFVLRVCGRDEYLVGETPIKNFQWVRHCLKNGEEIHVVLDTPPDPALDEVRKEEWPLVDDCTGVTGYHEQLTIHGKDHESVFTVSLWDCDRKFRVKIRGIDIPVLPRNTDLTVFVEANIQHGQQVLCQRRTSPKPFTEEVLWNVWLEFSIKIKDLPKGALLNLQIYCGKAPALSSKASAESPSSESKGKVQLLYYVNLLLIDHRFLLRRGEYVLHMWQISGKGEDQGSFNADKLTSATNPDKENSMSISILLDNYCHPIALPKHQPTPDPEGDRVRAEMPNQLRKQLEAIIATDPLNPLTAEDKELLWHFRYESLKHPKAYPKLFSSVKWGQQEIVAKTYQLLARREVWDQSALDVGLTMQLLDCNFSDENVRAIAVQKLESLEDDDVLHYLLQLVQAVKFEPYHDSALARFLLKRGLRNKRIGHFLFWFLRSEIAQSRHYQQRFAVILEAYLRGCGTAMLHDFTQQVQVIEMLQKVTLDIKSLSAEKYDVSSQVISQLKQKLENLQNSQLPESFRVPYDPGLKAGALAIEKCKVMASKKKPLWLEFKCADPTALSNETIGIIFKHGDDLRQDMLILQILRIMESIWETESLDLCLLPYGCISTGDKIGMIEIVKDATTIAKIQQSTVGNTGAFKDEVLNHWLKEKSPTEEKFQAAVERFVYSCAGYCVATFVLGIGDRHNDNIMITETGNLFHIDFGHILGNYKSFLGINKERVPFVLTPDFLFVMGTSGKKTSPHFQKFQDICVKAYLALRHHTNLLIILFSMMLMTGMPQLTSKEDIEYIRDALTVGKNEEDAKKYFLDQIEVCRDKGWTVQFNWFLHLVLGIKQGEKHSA
Description: Inhibition of human PI3Kgamma (144 to 1102 residues) expressed in mammalian expression system by KINOMEscan assay

T1 sequence (P42336 whole entry, canonical isoform): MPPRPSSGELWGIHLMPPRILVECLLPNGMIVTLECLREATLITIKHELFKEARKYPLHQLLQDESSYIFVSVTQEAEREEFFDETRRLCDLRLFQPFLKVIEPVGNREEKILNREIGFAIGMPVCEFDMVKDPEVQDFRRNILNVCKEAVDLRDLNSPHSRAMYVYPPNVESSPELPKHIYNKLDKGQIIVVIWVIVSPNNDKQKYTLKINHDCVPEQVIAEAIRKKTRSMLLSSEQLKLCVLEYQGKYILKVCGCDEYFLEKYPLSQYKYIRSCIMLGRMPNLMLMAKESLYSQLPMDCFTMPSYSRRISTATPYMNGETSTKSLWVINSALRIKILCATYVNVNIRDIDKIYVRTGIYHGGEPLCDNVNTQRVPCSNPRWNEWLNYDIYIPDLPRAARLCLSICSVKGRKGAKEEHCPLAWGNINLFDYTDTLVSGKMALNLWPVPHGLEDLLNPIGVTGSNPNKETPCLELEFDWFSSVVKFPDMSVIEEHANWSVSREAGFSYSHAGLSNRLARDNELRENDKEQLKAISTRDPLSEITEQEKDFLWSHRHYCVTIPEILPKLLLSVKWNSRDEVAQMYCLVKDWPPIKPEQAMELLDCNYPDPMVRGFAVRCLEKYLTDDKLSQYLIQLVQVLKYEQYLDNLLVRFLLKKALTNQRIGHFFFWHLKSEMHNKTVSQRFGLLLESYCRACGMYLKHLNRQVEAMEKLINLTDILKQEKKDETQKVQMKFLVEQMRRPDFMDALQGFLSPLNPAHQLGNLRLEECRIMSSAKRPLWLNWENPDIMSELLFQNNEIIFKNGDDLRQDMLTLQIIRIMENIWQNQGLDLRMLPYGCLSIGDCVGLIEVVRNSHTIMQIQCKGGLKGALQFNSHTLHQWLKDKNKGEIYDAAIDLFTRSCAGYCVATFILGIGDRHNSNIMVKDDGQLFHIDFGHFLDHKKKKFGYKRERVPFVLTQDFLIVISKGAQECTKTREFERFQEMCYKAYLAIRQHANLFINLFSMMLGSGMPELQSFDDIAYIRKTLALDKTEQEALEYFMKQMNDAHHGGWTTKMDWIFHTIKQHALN

Row | Structure (SMILES) | Ki [1] | Ki [2] | IC50 [3] | IC50 [4] | further results
1 | Nc1cc(C(F)F)c(-c2nc(N3CCOCC34CCC4)nc(N3CCOCC34CCC4)n2)cn1 | 0.632 µM | 0.0328 µM | 0.526 µM | 0.942 µM | 
2 | Nc1cc(C(F)F)c(-c2nc(N3C[C@@H]4C[C@H]3CO4)nc(N3C[C@@H]4C[C@H]3CO4)n2)cn1 | > 20 µM | 0.0185 µM | 1.56 µM | 4.04 µM | 
3 | Nc1cc(C(F)F)c(-c2nc(N3C4COCC3C4)nc(N3C4COCC3C4)n2)cn1 | > 20 µM | 0.551 µM | 5.77 µM | 17.9 µM | 
4 | Nc1cc(C(F)F)c(-c2nc(N3C4CCC3COC4)cc(N3C4CCC3COC4)n2)cn1 | 2.23 µM | 0.06 µM | 0.395 µM | 0.65 µM | 
5 | Nc1cc(C(F)F)c(-c2nc(N3C4COCC3COC4)nc(N3C4COCC3COC4)n2)cn1 | 2.38 µM | 0.031 µM | 0.275 µM | 0.357 µM | 
6 | C[C@@H]1COCCN1c1nc(-c2cnc(N)cc2C(F)F)nc(N2CCOCC2)n1 | 0.0208 µM | 0.0096 µM | 0.138 µM | 0.147 µM | 
7 | C[C@@H]1CN(c2nc(-c3cnc(N)cc3C(F)F)nc(N3C[C@@H](C)O[C@@H](C)C3)n2)C[C@H](C)O1 | 15.4 µM | 0.65 µM | 10.4 µM | 20.9 µM | 
8 | C[C@@H]1COCCN1c1nc(-c2cnc(N)cc2C(F)F)nc(N2CCOC[C@H]2C)n1 | 0.633 µM | 0.0126 µM | 0.31 µM | 0.364 µM | 
9 | Nc1cc(C(F)F)c(-c2nc(N3C[C@H]4C[C@@H]3CO4)nc(N3C[C@H]4C[C@@H]3CO4)n2)cn1 | 4.63 µM | 0.308 µM | 12.6 µM | 17.7 µM | 
10 | Nc1cc(C(F)(F)F)c(-c2nc(N3C4CCC3COC4)cc(N3C4CCC3COC4)n2)cn1 | 5.67 µM | 0.435 µM | 1.94 µM | 3.32 µM | 
11 | CC1(C)CN(c2nc(-c3cnc(N)cc3C(F)F)nc(N3CCOC(C)(C)C3)n2)CCO1 | 8.79 µM | 0.0734 µM | 2.33 µM | 4.82 µM | 
12 | C[C@H]1COC[C@H](C)N1c1nc(-c2cnc(N)cc2C(F)F)nc(N2[C@@H](C)COC[C@@H]2C)n1 | 0.064 µM | 0.0211 µM | 0.294 µM | 0.379 µM | 
13 | Nc1cc(CF)c(-c2nc(N3CCOCC3)nc(N3CCOCC3)n2)cn1 | 0.0686 µM | 0.0543 µM | 0.218 µM | 0.397 µM | 
14 | Nc1cc(C(F)F)c(-c2nc(N3CCOCC3)nc(N3CC4CCC(C3)O4)n2)cn1 | 0.0237 µM | 0.0034 µM | 0.112 µM | 0.144 µM | 
15 | Nc1cc(C(F)(F)F)c(-c2nc(N3CCOCC3)nc(N3CCOCC3)n2)cn1 [BIMIRALISIB] |  |  |  |  | Activity [5]: Active; inhibition in vivo at 50 mg/kg [6]: > 50%; Activity [7]: Active; Activity [8]: Active; Activity [9]: Active; Activity [10]: inactive; Activity [11]: Non-Toxic
16 | C[C@@H]1COC[C@@H](C)N1c1nc(-c2cnc(N)cc2C(F)F)nc(N2[C@H](C)COC[C@H]2C)n1 | > 20 µM | 0.0799 µM | 1.19 µM | 3.57 µM | 
17 | C[C@@H]1COC[C@H](C)N1c1nc(-c2cnc(N)cc2C(F)F)nc(N2[C@H](C)COC[C@@H]2C)n1 | 0.141 µM | 0.0035 µM | 0.16 µM | 0.252 µM | 

Row | Structure (SMILES) | Ki [1] | Ki [2] | IC50 [3] | IC50 [4] | further results
18 | Nc1cc(C(F)F)c(-c2cc(N3CCOCC3)nc(N3CCOCC3)n2)cn1 | 0.018 µM | 0.035 µM | 0.184 µM | 0.207 µM | 
19 | Nc1cc(CO)c(-c2nc(N3CCOCC3)nc(N3CCOCC3)n2)cn1 | 0.0813 µM | 0.0745 µM | 0.528 µM | 0.341 µM | 
20 | Nc1cc(C(F)(F)F)c(-c2cc(N3CCOCC3)nc(N3CCOCC3)n2)cn1 [BUPARLISIB] |  |  | 0.553 µM | 0.416 µM | 
21 | Nc1cc(C(F)F)c(-c2nc(N3CCOCC3)nc(N3C4CCC3COC4)n2)cn1 | 0.0258 µM | 0.0112 µM | 0.113 µM | 0.156 µM | 
22 | Nc1cc(C(F)F)c(-c2nc(N3CCOCC3)cc(N3CCOCC3)n2)cn1 | 0.029 µM | 0.042 µM | 0.256 µM | 0.243 µM | 
23 | Nc1cc(C(F)(F)F)c(-c2cc(N3C4CCC3COC4)nc(N3C4CCC3COC4)n2)cn1 | 2.19 µM | 0.03 µM | 0.318 µM | 0.52 µM | 
24 | CNC(=O)c1cccc(-c2ccc3c(N4CCOC[C@@H]4C)nc(N4CCOC[C@@H]4C)nc3n2)c1 [VISTUSERTIB] |  |  |  |  | Kd [12]: 1.5 µM; Kd [13]: 0.033 µM; Kd [14]: > 30 µM; Kd [15]: 23 µM; Kd [16]: 3.3 µM; Kd [17]: 8.4 µM
25 | COc1cc(N)ncc1-c1nc(N2CCOCC2)nc(N2CCOCC2)n1 | 0.693 µM | 0.483 µM | 1.92 µM | 1.85 µM | 
26 | CC[C@@H]1COCCN1c1nc(-c2cnc(N)cc2C(F)F)nc(N2CCOC[C@H]2CC)n1 | 0.0322 µM | 0.0136 µM | 0.209 µM | 0.354 µM | 
27 | Nc1cc(C(F)F)c(-c2nc(N3CC4CCC(C3)O4)nc(N3CC4CCC(C3)O4)n2)cn1 | 1.3 µM | 0.0139 µM | 0.301 µM | 0.63 µM | 
28 | Nc1cc(C(F)(F)F)c(-c2nc(N3CCOCC3)cc(N3CCOCC3)n2)cn1 | 0.041 µM | 0.911 µM | 0.926 µM | 0.729 µM | 
29 | Nc1cc(C(F)F)c(-c2cc(N3C4CCC3COC4)nc(N3C4CCC3COC4)n2)cn1 | 2.09 µM | 0.012 µM | 0.164 µM | 0.287 µM | 
30 | CO[C@H]1CC[C@H](N2C(=O)CNc3ncc(-c4ccc(C(C)(C)O)nc4)nc32)CC1 [ONATASERTIB] |  |  |  |  | Kd [14]: 0.039 µM; Kd [15]: 2.5 µM
31 | COC(OC)c1cc(N)ncc1-c1nc(N2CCOCC2)nc(N2CCOCC2)n1 | 0.129 µM | 0.474 µM | 2.11 µM | 1.2 µM | 
32 | Nc1cc(C(F)F)c(-c2nc(N3CCOCC3)nc(N3CCOCC3)n2)cn1 |  |  | 0.118 µM | 0.102 µM | 
33 | Nc1cc(C(F)F)c(-c2nc(N3C4CCCC3COC4)nc(N3C4CCCC3COC4)n2)cn1 | > 20 µM | 0.0602 µM | 1.3 µM | 1.21 µM | 
34 | CC(C)n1nc(-c2ccc3oc(N)nc3c2)c2c(N)ncnc21 [SAPANISERTIB] |  |  |  |  | Kd [15]: 8.2 µM
